{"source": "paper PMC4331071", "about": "(Clinical cancer research : an official journal of the …, 2013)", "origin": "cited, not measured here", "test_system": "GRP78", "data": [{"sequence": "WIFPWIQL", "values": [{"measurement": "efficacy among GRP78 binding peptides", "result": "highest efficacy"}]}]}
